According to US8071587B2, “(Dihydro)imidazoiso[5,1-A]quinolines” (N. V. Organon, priority 2009, dated 2011):

molecular target: T1, human FSH receptor (Homo sapiens, UniProt P23945); test: Agonistic activity at the human FSH receptor expressed in CHO cells, CRE-luciferase reporter (hFSHRago CHO luc); format: cell-based; details: CHO cells stably transfected with human FSH receptor and CRE/luciferase reporter; 4 hours of incubation
T1 construct: expressed in transfected cells; host or cells: Chinese Hamster Ovary (CHO) cells, stably transfected, cotransfected with a CRE/promoter-firefly luciferase reporter
T1 sequence (P23945 18-695): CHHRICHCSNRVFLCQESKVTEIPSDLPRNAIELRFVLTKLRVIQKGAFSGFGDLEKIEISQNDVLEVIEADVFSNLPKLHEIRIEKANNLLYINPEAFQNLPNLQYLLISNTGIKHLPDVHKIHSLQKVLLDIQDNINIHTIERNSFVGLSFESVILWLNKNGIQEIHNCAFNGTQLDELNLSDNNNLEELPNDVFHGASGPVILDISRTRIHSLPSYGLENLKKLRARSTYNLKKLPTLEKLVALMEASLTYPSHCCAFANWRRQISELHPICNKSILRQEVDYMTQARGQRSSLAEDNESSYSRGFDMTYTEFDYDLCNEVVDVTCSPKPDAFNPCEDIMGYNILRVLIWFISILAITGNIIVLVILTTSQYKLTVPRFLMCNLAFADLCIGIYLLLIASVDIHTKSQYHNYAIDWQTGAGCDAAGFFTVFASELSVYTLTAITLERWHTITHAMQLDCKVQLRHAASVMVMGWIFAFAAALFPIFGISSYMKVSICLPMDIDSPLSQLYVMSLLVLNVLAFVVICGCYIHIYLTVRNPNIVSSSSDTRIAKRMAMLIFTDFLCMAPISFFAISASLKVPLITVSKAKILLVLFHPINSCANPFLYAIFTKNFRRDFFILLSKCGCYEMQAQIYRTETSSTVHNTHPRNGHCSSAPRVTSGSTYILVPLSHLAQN
Source text: The term EC50 means the concentration of the test compound that elicits half-maximal (50%) stimulation compared to the compound's maximally attainable effect. The values can be determined e.g. in a cell line transfected with a FSH receptor gene and cotransfected with a cAMP responsive element/promoter directing the expression of a reporter gene. Values can be determined using a software program such as MathIQ (version 2.0, ID Business Solutions Limited). Agonistic Activity of Compounds at the Human FSH Receptor Expressed in CHO Cells Agonistic activity of the compounds at the human FSH receptor was determined in Chinese Hamster Ovary (CHO) cells stably transfected with the human FSH receptor and cotransfected with a cAMP responsive element (CRE)/promotor directing the expression of a firefly luciferase reporter gene. Binding of the compounds to the Gs protein-coupled FSH receptor will result in an increase of cAMP, which in turn will induce an increased transactivation of the luciferase reporter. Cells (7,500 cells/well of a 384 well plate) were incubated in Dulbecco' minimal essential F12 modified medium (Invitrogen), supplemented with 1 μg/ml bovine insulin, 5 μg/ml human apo-transferrin, 80 U/ml penicillin G and 80 μg/ml streptomycin with the test compounds (concentration between 0.0316 nM and 10.0 μM) in duplicate in a humidified atmosphere (95%) at 5-7% CO2 and 37° C. The final concentration of DMSO was 1%. After 4 hours of incubation, plates were allowed to adjust to room temperature for 1 hour. Then, Luclite (PerkinElmer) solution was added to the wells and cells were allowed to lyse for at least 1 hour at room temperature. Subsequently, luciferase activity was measured in a luminescence counter. The signal is expressed as counts per second (cps). The EC50 (concentration of the test compound that elicits half-maximal (50%) luciferase stimulation compared to the compound's maximally attainable effect) and efficacy values (maximal effect of the test compound as percentage of the maximal effect of recombinant human FSH) of the compounds were determined using the software program MathIQ (version 2.0, ID Business Solutions Limited). EC50 data are indicated at the synthesis examples.

Row | EC50 [nM] | SMILES
1 | 5 | CCn1nnc(-c2cc3c(cc2OC)CCn2c(C(=O)N(C)C(C)(C)C)nc(-c4cccs4)c2-3)n1 [Example 51c, 9-(2-Ethyltetrazol-5-yl-)-8-methoxy-1-thiophen-2-yl-5,6-dihydro-imidazo[5,1-a]isoquinoline-3-carboxylic acid tert-butyl-methyl-amide]
2 | 1 | COC1=CC2CCn3c(C(=O)N(C)C(C)(C)C)nc(-c4cccs4)c3C2C=C1c1cccnc1 (stereo not drawn) [Example 2a, 8-Methoxy-9-pyridin-3-yl-1-thiophen-2-yl-5,6,6a,10a-tetrahydro-imidazo[5,1-a]isoquinoline-3-carboxylic acid tert-butyl-methyl-amide]
3 | 3 | C=CCN1CCN(C(=O)c2nc(-c3cccs3)c3n2CCc2cc(OC)c(OC(C)C)cc2-3)CCC1=O [Example 28, 4-Allyl-1-(9-isopropoxy-8-methoxy-1-thiophen-2-yl-5,6-dihydro-imidazo[5,1-a]isoquinoline-3-carbonyl)-[1,4]diazepan-5-one]
4 | 6.5 | COc1cc2ccn3c(C(=O)N(C)C(C)(C)C)nc(-c4cccs4)c3c2cc1OC(C)C [Example 15j, 9-Isopropoxy-8-methoxy-1-thiophen-2-yl-imidazo[5,1-a]isoquinoline-3-carboxylic acid tert-butyl-methyl-amide]

Row | SMILES | EC50 [nM]
5 | CCCCN1CCN(C(=O)c2nc(-c3cccs3)c3n2CCc2cc(OC)c(OC(C)C)cc2-3)CCC1=O [Example 27b, 4-Butyl-1-(9-isopropoxy-8-methoxy-1-thiophen-2-yl-5,6-dihydro-imidazo[5,1-a]isoquinoline-3-carbonyl)-[1,4]diazepan-5-one] | 0.6

tested on: not given; test: not given; details: not given

Row | melting point [°C] | SMILES
6 | 197 to 198 | COc1cc2c(cc1C(=O)NC(C)C)-c1c(-c3cccs3)nc(C(=O)N(C)C(C)(C)C)n1CC2 [Example 5, 8-Methoxy-1-thiophen-2-yl-5,6-dihydro-imidazo[5,1-a]isoquinoline-3,9-dicarboxylic acid 3-(tert-butyl-methyl-amide) 9-isopropylamide]
7 | 122 to 126 | COc1cc2c(cc1Oc1ccccc1)-c1c(-c3cccs3)nc(C(=O)N(C)C(C)(C)C)n1CC2 [Example 42b, 8-Methoxy-9-phenoxy-1-thiophen-2-yl-5,6-dihydro-imidazo[5,1-a]isoquinoline-3-carboxylic acid tert-butyl-methyl-amide]
8 | 165 | COc1cc2c(cc1-c1cccc(F)c1)-c1c(-c3cccs3)nc(C(=O)N(C)C(C)(C)C)n1CC2 [Example 2i, 9-(3-Fluoro-phenyl)-8-methoxy-1-thiophen-2-yl-5,6-dihydro-imidazo[5,1-a]isoquinoline-3-carboxylic acid tert-butyl-methyl-amide]
9 | 111 to 112 | CCOc1ccc2c(c1)CCn1c(C(=O)N(C)C(C)(C)C)nc(-c3cccs3)c1-2 [Example 40c, 8-Ethoxy-1-thiophen-2-yl-5,6-dihydro-imidazo[5,1-a]isoquinoline-3-carboxylic acid tert-butyl-methyl-amide]
10 | 144 to 145 | COc1cc2c(cc1CC(C)C)-c1c(-c3cncs3)nc(C(=O)N(C)C(C)(C)C)n1CC2 [Example 38, 9-Isobutyl-8-methoxy-1-thiazol-5-yl-5,6-dihydro-imidazo[5,1-a]isoquinoline-3-carboxylic acid tert-butyl-methyl-amide]
11 | 154 to 155 | COc1cc2c(cc1C=C(F)F)-c1c(-c3cccs3)nc(C(=O)N(C)C(C)(C)C)n1CC2 [Example 39, 9-(2,2-Difluoro-vinyl)-8-methoxy-1-thiophen-2-yl-5,6-dihydro-imidazo[5,1-a]isoquinoline-3-carboxylic acid tert-butyl-methyl-amide]
12 | 185 to 186 | COc1cc2c(cc1NC(=O)c1nccs1)-c1c(-c3cccs3)nc(C(=O)N(C)C(C)(C)C)n1CC2 [Example 10, 8-Methoxy-9-[(thiazole-2-carbonyl)-amino]-1-thiophen-2-yl-5,6-dihydro-imidazo[5,1-a]isoquinoline-3-carboxylic acid tert-butyl-methyl-amide]
13 | 178 to 186 | CCN(C(=O)c1nc(-c2cccs2)c2n1CCc1cc(OC)c(OCCO)cc1-2)C(C)(C)C [Example 34b, 9-(2-Hydroxy-ethoxy)-8-methoxy-1-thiophen-2-yl-5,6-dihydro-imidazo[5,1-a]isoquinoline-3-carboxylic acid tert-butyl-ethyl-amide]
14 | 112 to 114 | COc1cc2c(cc1OC(C)C)-c1c(-c3cncs3)nc(C(=O)N(C)C(C)(C)C)n1CC2 [Example 47e, 9-Isopropoxy-8-methoxy-1-thiazol-5-yl-5,6-dihydro-imidazo[5,1-a]isoquinoline-3-carboxylic acid tert-butyl-methyl-amide]
15 | 160 to 161 | COc1cc2c(cc1Br)-c1c(-c3cccs3)nc(C(=O)N(C)C(C)(C)C)n1CC2 [Example 1j, 9-Bromo-8-methoxy-1-thiophen-2-yl-5,6-dihydro-imidazo[5,1-a]isoquinoline-3-carboxylic acid tert-butyl-methyl-amide]
16 | 123 | COc1cc2c(cc1-c1cccc(NC(C)=O)c1)-c1c(-c3cccs3)nc(C(=O)N(C)C(C)(C)C)n1CC2 [Example 2f, 9-(3-Acetylamino-phenyl)-8-methoxy-1-thiophen-2-yl-5,6-dihydro-imidazo[5,1-a]isoquinoline-3-carboxylic acid tert-butyl-methyl-amide]
17 | 238 to 240 | CCc1nnc(NC(=O)c2cc3c(cc2OC)CCn2c(C(=O)N(C)C(C)(C)C)nc(-c4cccs4)c2-3)s1 [Example 4, 8-Methoxy-1-thiophen-2-yl-5,6-dihydro-imidazo[5,1-a]isoquinoline-3,9-dicarboxylic acid 3-(tert-butyl-methyl-amide) 9-[(5-ethyl-[1,3,4]thiadiazol-2-yl)-amide]]
18 | 124 | COc1cc2c(cc1CC(C)C)-c1c(-c3cccs3)nc(C(=O)N(C)C(C)(C)C)n1CC2 [Example 18k, 9-Isobutyl-8-methoxy-1-thiophen-2-yl-5,6-dihydro-imidazo[5,1-a]isoquinoline-3-carboxylic acid tert-butyl-methyl-amide]
19 | 85 to 90 | COc1cc2c(cc1-c1cccc(N3CCOCC3)c1)-c1c(-c3cccs3)nc(C(=O)N(C)C(C)(C)C)n1CC2 [Example 2h, 8-Methoxy-9-(3-morpholin-4-yl-phenyl)-1-thiophen-2-yl-5,6-dihydro-imidazo[5,1-a]isoquinoline-3-carboxylic acid tert-butyl-methyl-amide]
20 | 163 to 164 | COc1cc2ccn3c(C(=O)N(C)C(C)(C)C)nc(-c4cccs4)c3c2cc1OC(C)C [Example 15j, 9-Isopropoxy-8-methoxy-1-thiophen-2-yl-imidazo[5,1-a]isoquinoline-3-carboxylic acid tert-butyl-methyl-amide]
21 | 183 to 184 | COc1cc2c(cc1-c1c(C)noc1C)-c1c(-c3cccs3)nc(C(=O)N(C)C(C)(C)C)n1CC2 [Example 2m, 9-(3,5-Dimethyl-isoxazol-4-yl)-8-methoxy-1-thiophen-2-yl-5,6-dihydro-imidazo[5,1-a]isoquinoline-3-carboxylic acid tert-butyl-methyl-amide]
